One test deals with T1, CIP2A (Homo sapiens, UniProt Q8TCG1).
T1 construct: endogenous full-length protein in A375 human melanoma cells / lysate; 905 residues
Briefly: DARTS (proteinase K, immunoblot) and cellular thermal shift assay. In kind it is cell-based. Conditions: A375 cells treated with PF (DARTS); melanoma cells (CETSA). (A western blot detects proteins with antibodies after separation by electrophoresis.)

The target of the next test is T2, Hu‐CIP2A (1‐560) (Homo sapiens, UniProt Q8TCG1).
T2 construct: recombinant purified N-terminal armadillo repeat domain, residues 1-560 of 905
Nature of the test: isothermal titration calorimetry, one-site model. Conditions: read-out: dissociation constant. In kind it is binding. From the text: isothermal titration calorimetry, one-site model on Hu‐CIP2A (1‐560) | A strong binding affinity between PF and CIP2A protein was observed, with a dissociation constant
For orientation: Isothermal titration calorimetry measures the heat released or taken up as one component is titrated into another.

The values below come from article PMC11470999, “Penfluridol inhibits melanoma growth and metastasis through enhancing von Hippel‒Lindau tumor suppressor‐mediated cancerous inhibitor of protein phosphatase 2A (CIP2A) degradation” (MedComm, 2024).

With `OC1(c2ccc(Cl)c(C(F)(F)F)c2)CCN(CCCC(c2ccc(F)cc2)c2ccc(F)cc2)CC1` [PF, Penfluridol], the “DARTS (proteinase K, immunoblot) and cellular thermal shift assay” value at CIP2A was “PF protects CIP2A from proteinase K‐induced protein hydrolysis”. Moreover, on Hu‐CIP2A (1‐560), the Kd stood at 7.42 µM.
